This passage reports IC50 results from EP0569083A1, “New quinazolines as inhibitors of HIV reverse transcriptase” (priority 1992, dated 1993).

Where two headings read alike, the source gives them in different places.

Experiment [1] has as its target T1, A17 RT (Human immunodeficiency virus type 1 group M subtype B, UniProt P04585, K690N/Y768C).
T1 construct: A17 RT was employed in the assay; made in house; host or cells: bacteria
Nature of the experiment: Reverse transcriptase assay, double (DBL) mutant. It counts as biochemical, HIV. How it is done: (§1) The assay measures the incorporation of tritiated deoxyguanosine monophosphate by recombinant HIV reverse transcriptase (HIV RTR) (or other RT) into acid-precipitable cDNA at the Km values of dGTP and poly r(C)·oligo d(G)₁₂₋₁₈.
(§2) The assays were carried out in 55 mM Tris (pH 8.2)-30 mM KCl-30 mM MgCl₂-1 mM dithiothreitol-20 µg of rC:dG₁₂₋₁₈ (Pharmacia) per ml-8 µM [³H]dGTP (New England Nuclear)-0.01% Triton X-100-50 µM ethylene glycol-bis(β-amino-ethyl ether)-N,N,N',N'-tetraacetic acid (EGTA)-1 mg of bovine serum albumin per ml. After 60 min of incubation at 37°C, acid-precipitable material was collected onto glass fiber filters by using a semiautomatic cell harvester. Bacterial cell extracts containing RT were diluted to within the linear range of the assay, and activity was determined in the presence and absence of inhibitor. Purified HIV-1 RT heterodimer produced in E. coli also served as a control.
For the double (DBL) mutant assay, A17 RT was employed in the assay. A17 RT is resistant to various aminopyridones, as described in Nunberg, J.H. et al., J. Virol. 65, 4887 (1991).

The target in experiment [2] is T2, recombinant HIV reverse transcriptase (HIV RTR) (Human immunodeficiency virus type 1 group M subtype B, UniProt P04585).
T2 construct: recombinant HIV reverse transcriptase (HIV RTR); made in house; host or cells: bacteria (E. coli is named only for the purified heterodimer control)
Nature of the experiment: Reverse transcriptase assay (incorporation of tritiated dGMP into acid-precipitable cDNA). The experiment is classed as biochemical. As to the method: as §1, §2

[3] abbreviates: recombinant HIV RT, 60 min at 37°C, read-out: IC50.

As to `O=C1Nc2ccc(Cl)cc2C(C#Cc2ccccn2)(C2CC2)N1` (racemic) [Compound 11, 6-chloro-4-cyclopropyl-3,4-dihydro-4-((2-pyridyl)ethynyl)quinazolin-2(1H)-one], the IC50 came to 635 nM in experiment [1] and 19 nM in experiment [2].
Taken in the same sequence, the figures for `COCC#CC1(C2CC2)NC(=O)Nc2ccc(Cl)cc21` (stereo not drawn) [Compound 1, 6-chloro-4-cyclopropyl-3,4-dihydro-4-(3-methoxy-1-propynyl)quinazolin-2(1H)-one] were 7300 nM and 49 nM.
Taken in the same sequence, the figures for `COCC#CC1(C2CC2)c2cc(Cl)ccc2NC(=O)N1C` (stereo not drawn) [Compound 2, 6-chloro-4-cyclopropyl-3,4-dihydro-3-methyl-4-(3-methoxy-1-propynyl)quinazolin-2(1H)-one] were 700 nM and 13 nM.
Taken in the same sequence, the figures for `CN1C(=O)Nc2ccc(Cl)cc2C1(C#CCOCC(F)(F)F)C1CC1` (stereo not drawn) [Compound 3, 6-chloro-4-cyclopropyl-3,4-dihydro-3-methyl-4-(3-(2,2,2-trifluoroethoxy)-1-propynyl)quinazolin-2(1H)-one] were 2600 nM and 19 nM.
Regarding `CN1C(=O)Nc2ccc(Cl)cc2C1(C#CCCF)C1CC1` (stereo not drawn) [Compound 4, 6-chloro-4-cyclopropyl-4-(4-fluoro-1-butynyl)-3,4-dihydro-3-methylquinazolin-2(1H)-one], the values for the IC50 in experiment [1] and in experiment [2] were 230 nM and 7 nM, respectively.
With `O=C1Nc2ccc(Cl)cc2C(C#CCCF)(C2CC2)N1` (stereo not drawn) [Compound 5, 6-chloro-4-cyclopropyl-4-(4-fluoro-1-butynyl)-3,4-dihydroquinazolin-2(1H)-one], the IC50 in experiment [1] was 3500 nM; in experiment [2] it was 31 nM.
Taken in the same sequence, the figures for `CN1C(=O)Nc2ccc(Cl)cc2C1(C#CCCCl)C1CC1` (stereo not drawn) [Compound 6, 6-chloro-4-(4-chloro-1-butynyl)-4-cyclopropyl-3,4-dihydro-3-methylquinazolin-2(1H)-one] were 250 nM and 7 nM.
Take `CN1C(=O)Nc2ccc(Cl)cc2C1(C#CCN=[N+]=[N-])C1CC1` (stereo not drawn) [Compound 7, 4-(3-azido-1-propynyl)-6-chloro-4-cyclopropyl-3,4-dihydro-3-methylquinazolin-2(1H)-one]: the figures for the IC50 in experiment [1] and in experiment [2] were 1750 nM and 20 nM, respectively.
Taken in the same sequence, the figures for `CN1C(=O)Nc2ccc(Cl)cc2C1(C#CCF)C1CC1` (stereo not drawn) [Compound 8, 6-chloro-4-cyclopropyl-4-(3-fluoro-1-propynyl)-3,4-dihydro-3-methylquinazolin-2(1H)-one] were 2900 nM and 24 nM.
The like results for `CN(C)CC#CC1(C2CC2)c2cc(Cl)ccc2NC(=O)N1C` (stereo not drawn) [Compound 9, 6-chloro-4-cyclopropyl-3,4-dihydro-3-methyl-4-(3-(N,N-dimethylamino)-1-propynyl)quinazolin-2(1H)-one] were, in that order, 273 nM and 54 nM.
The like results for `CN1C(=O)Nc2ccc(Cl)cc2C1(C#Cc1ccccn1)C1CC1` (stereo not drawn) [Compound 10, 6-chloro-4-cyclopropyl-3,4-dihydro-3-methyl-4-((2-pyridyl)ethynyl)quinazolin-2(1H)-one] were, in that order, 87 nM and 21 nM.
As to `O=C1Nc2ccc(Cl)cc2C(C#Cc2cccnc2)(C2CC2)N1` (stereo not drawn) [Compound 12, 6-chloro-4-cyclopropyl-3,4-dihydro-4-((3-pyridyl)ethynyl)quinazolin-2(1H)-one], the results for the IC50 in experiment [1] and in experiment [2] were 310 nM and 84 nM, respectively.
Turning to `O=C1Nc2ccc(Cl)cc2C(C#Cc2ccncc2)(C2CC2)N1` (stereo not drawn) [Compound 13, 6-chloro-4-cyclopropyl-3,4-dihydro-4-((4-pyridyl)ethynyl)quinazolin-2(1H)-one], the figures for the IC50 in experiment [1] and in experiment [2] were 3000 nM and 470 nM, respectively.
The like results for `O=C1Nc2ccc(Cl)cc2C(C#Cc2cncnc2)(C2CC2)N1` (stereo not drawn) [Compound 14, 6-chloro-4-cyclopropyl-3,4-dihydro-4-((5-pyrimidinyl)ethynyl)quinazolin-2(1H)-one] were, in that order, 3000 nM and 1750 nM.
Take `O=C1Nc2ccc(Cl)cc2C(C#Cc2ncccn2)(C2CC2)N1` (stereo not drawn) [Compound 15, 6-chloro-4-cyclopropyl-3,4-dihydro-4-((2-pyrimidinyl)ethynyl)quinazolin-2(1H)-one]: the IC50 is 8800 nM in experiment [1] and 130 nM in experiment [2] (setting [3]).
Taken in the same sequence, the figures for `O=C1Nc2ccc(Cl)cc2C(C#Cc2cnccn2)(C2CC2)N1` (stereo not drawn) [Compound 16, 6-chloro-4-cyclopropyl-3,4-dihydro-4-((2-pyrazinyl)ethynyl)quinazolin-2(1H)-one] were 9000 nM and 270 nM.
Take `CN1C(=O)Nc2ccc(Cl)cc2C1(C#CCOc1ccncc1)C1CC1` (stereo not drawn) [Compound 17, 6-chloro-4-cyclopropyl-3,4-dihydro-3-methyl-4-(3-(4-pyridyloxy)-1-propynyl)quinazolin-2(1H)-one]: the values for the IC50 in experiment [1] and in experiment [2] were 3900 nM and 165 nM, respectively.
With `CN1C(=O)Nc2ccc(Cl)cc2C1(C#CCOc1cc[n+]([O-])cc1)C1CC1` (stereo not drawn) [Compound 18, 6-chloro-4-cyclopropyl-3,4-dihydro-3-methyl-4-(3-(4-(N-oxopyridyl)oxy)-1-propynyl)quinazolin-2(1H)-one], the IC50 in experiment [1] (A17 RT (double mutant, resistant to aminopyridones), read-out: IC50DBL Mutant) was 65000 nM; in experiment [2] (setting [3]), 9400 nM.
In the case of `CN1C(=O)Nc2ccc(Cl)cc2C1(C#CCN1CCOCC1)C1CC1` (stereo not drawn) [Compound 19, 6-chloro-4-cyclopropyl-3,4-dihydro-3-methyl-4-(3-(4-morpholinyl)-1-propynyl)quinazolin-2(1H)-one], the IC50 in experiment [1] turned out to be 22000 nM; in experiment [2], 1000 nM.
Taken in the same sequence, the figures for `CN1C(=O)Nc2ccc(Cl)cc2C1(C#CCn1ccnc1)C1CC1` (stereo not drawn) [Compound 20, 6-chloro-4-cyclopropyl-3,4-dihydro-4-(3-(1-imidazolyl)-1-propynyl)-3-methylquinazolin-2(1H)-one] were 960 nM and 620 nM.
Taken in the same sequence, the figures for `C=CC#CC1(C2CC2)c2cc(Cl)ccc2NC(=O)N1C` (stereo not drawn) [Compound 21, 4-(3-buten-1-ynyl)-6-chloro-4-cyclopropyl-3,4-dihydro-3-methylquinazolin-2(1H)-one] were 248 nM and 4.3 nM.
For the compound `CN1C(=O)Nc2ccc(Cl)cc2C1(C#CCO)C1CC1` (stereo not drawn) [Compound 22, 6-Chloro-4-cyclopropyl-3,4-dihydro-4-(3-hydroxy-1-propynyl)-3-methylquinazolin-2(1H)-one], the IC50 in experiment [2] worked out at 255 nM.
`O=C1Nc2ccc(Cl)cc2C(C#Cc2ccccc2)(C2CC2)N1` (stereo not drawn) [Compound 23, 6-chloro-4-cyclopropyl-3,4-dihydro-4-(phenylethynyl)quinazolin-2(1H)-one]: the IC50 in experiment [1] was found to be 135 nM; in experiment [2], 6.1 nM.
Consider `CN1C(=O)Nc2ccc(Cl)cc2C1(C#CCOc1ccccn1)C1CC1` (stereo not drawn) [Compound 24, 6-Chloro-4-cyclopropyl-3,4-dihydro-3-methyl-4-(3-(2-pyridyloxy)-1-propynyl)quinazolin-2(1H)-one], for which the IC50 in experiment [1] worked out at 4900 nM; in experiment [2] it was 125 nM.
The like results for `O=C1Nc2ccc(Cl)cc2C(C#Cc2ccccc2[N+](=O)[O-])(C2CC2)N1` (stereo not drawn) [Compound 25, 6-Chloro-4-cyclopropyl-3,4-dihydro-4-(2-nitrophenylethynyl)quinazolin-2(1H)-one] were, in that order, 390 nM and 10.5 nM.
The like results for `O=C1Nc2ccc(Cl)cc2[C@@](C#Cc2ccccn2)(C2CC2)N1` [Compound 26, 6-chloro-4(S)-cyclopropyl-3,4-dihydro-4-((2-pyridyl)ethynyl)quinazolin-2(1H)-one] were, in that order, 400 nM and 7 nM.
